From PubChem BioAssay AID248 (DTP/NCI, 2004)
Values joined by “and” are separate entries in the source; they are usually repeats but may differ in a detail not shown here. Equal entries are not always repeated. Inconclusive results and toxic doses are left out. No stated cut-off is given here; in the data, active means T/C of 150% or more; inactive means T/C below 125%.

System: L1210 leukemia ip in BDF1 mice, survival T/C
Assay: NCI In Vivo Anticancer Drug Screen. Data for tumor model L1210 Leukemia (intraperitoneal) in B6D2F1 (BDF1) mice
Conditions: endpoint: mean survival time, higher = longer survival
How it was run: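 Ratio derived from survival: compound-dosed mice over vehicle-dosed mice, all bearing a transplantable tumor.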

[1] = dose: 100.0 mg/kg/injection, schedule: Q01DX009 (ip), vehicle: Klucel (hydroxypropylcellulose) (HPC)
[2] = dose: 200.0 mg/kg/injection, schedule: Q01DX009 (ip), vehicle: Klucel (hydroxypropylcellulose) (HPC)
[3] = dose: 400.0 mg/kg/injection, schedule: Q01DX009 (ip), vehicle: Klucel (hydroxypropylcellulose) (HPC)
[4] = dose: 100.0 mg/kg/injection, schedule: Q01DX001 (ip), vehicle: Klucel (hydroxypropylcellulose) (HPC)
[5] = dose: 100.0 mg/kg/injection, schedule: Q04DX003 (ip), vehicle: saline with Tween-80
[6] = dose: 200.0 mg/kg/injection, schedule: Q04DX003 (ip), vehicle: saline with Tween-80
[7] = dose: 400.0 mg/kg/injection, schedule: Q04DX003 (ip), vehicle: saline with Tween-80
[8] = dose: 200.0 mg/kg/injection, schedule: Q01DX001 (ip), vehicle: Klucel (hydroxypropylcellulose) (HPC)
[9] = dose: 400.0 mg/kg/injection, schedule: Q01DX001 (ip), vehicle: Klucel (hydroxypropylcellulose) (HPC)
[10] = dose: 50.0 mg/kg/injection, schedule: Q01DX001 (ip), vehicle: saline
[11] = dose: 100.0 mg/kg/injection, schedule: Q01DX001 (ip), vehicle: saline
[12] = dose: 200.0 mg/kg/injection, schedule: Q01DX001 (ip), vehicle: saline
[13] = dose: 400.0 mg/kg/injection, schedule: Q01DX001 (ip), vehicle: saline
[14] = dose: 100.0 mg/kg/injection, schedule: Q04DX002 (ip), vehicle: Klucel (hydroxypropylcellulose) (HPC)
[15] = dose: 200.0 mg/kg/injection, schedule: Q04DX002 (ip), vehicle: Klucel (hydroxypropylcellulose) (HPC)
[16] = dose: 400.0 mg/kg/injection, schedule: Q04DX002 (ip), vehicle: Klucel (hydroxypropylcellulose) (HPC)
[17] = dose: 200.0 mg/kg/injection, schedule: Q01DX001 (ip), vehicle: carboxymethylcellulose (CMC)
[18] = dose: 400.0 mg/kg/injection, schedule: Q01DX001 (ip), vehicle: carboxymethylcellulose (CMC)
[19] = dose: 50.0 mg/kg/injection, schedule: Q04DX003 (ip), vehicle: saline with Tween-80
[20] = dose: 100.0 mg/kg/injection, schedule: Q01DX009 (ip), vehicle: saline with Tween-80
[21] = dose: 200.0 mg/kg/injection, schedule: Q01DX009 (ip), vehicle: saline with Tween-80
[22] = dose: 400.0 mg/kg/injection, schedule: Q01DX009 (ip), vehicle: saline with Tween-80
[23] = dose: 100.0 mg/kg/injection, schedule: Q04DX003 (ip), vehicle: Klucel (hydroxypropylcellulose) (HPC)
[24] = dose: 200.0 mg/kg/injection, schedule: Q04DX003 (ip), vehicle: Klucel (hydroxypropylcellulose) (HPC)
[25] = dose: 25.0 mg/kg/injection, schedule: Q01DX009 (ip), vehicle: saline with Tween-80
[26] = dose: 50.0 mg/kg/injection, schedule: Q01DX009 (ip), vehicle: saline with Tween-80
[27] = dose: 100.0 mg/kg/injection, schedule: Q01DX001 (ip), vehicle: carboxymethylcellulose (CMC)

Measured: T/C

CN(C)c1ccc(/C=N/NC(=O)c2ccccc2NC(=O)C2CC2)cc1
inactive: [1] 93 % of control | [2] 104 % of control | [3] 90 % of control

Cc1nc(N)[nH]c(=O)c1CCCNC(=O)c1cccc([N+](=O)[O-])c1
inactive: dose: 50.0 mg/kg/injection, schedule: Q01DX001 (ip), vehicle: Klucel (hydroxypropylcellulose) (HPC) 108 % of control | [4] 114 % of control

CCCCCCCC(=O)c1ccc(O)cc1
inactive: [5] 109 % of control | [6] 100 % of control | [7] 103 % of control

CC(CC(=O)NC(N)=O)(NC(N)=O)NC(N)=O
inactive: [4] 100 % of control | [8] 101 % of control | [9] 95 % of control

NC(=NCCCC(NC(=O)OCc1ccccc1)C(=O)NC1C(CO)OC(n2cnc3c(N)ncnc32)C1O)N[N+](=O)[O-] (centres undefined)
inactive: [10] 90 % of control | [11] 95 % of control | [12] 93 % of control

CN(CC1CNc2nc(N)[nH]c(=O)c2N1C)c1ccc(C(=O)NC(CCC(=O)O)C(=O)O)cc1 (centres undefined)
inactive: [11] 94 % of control | [12] 102 % of control | [13] 94 % of control

CC1(CO)C2CCC(O)C1C2 (centres undefined)
inactive: dose: 75.0 mg/kg/injection, schedule: Q01DX009 (ip), vehicle: saline 103 % of control | dose: 75.0 mg/kg/injection, schedule: Q04DX003 (ip), vehicle: saline 94 % of control | dose: 150.0 mg/kg/injection, schedule: Q01DX009 (ip), vehicle: saline 97 % of control | dose: 150.0 mg/kg/injection, schedule: Q04DX003 (ip), vehicle: saline 95 % of control | dose: 300.0 mg/kg/injection, schedule: Q01DX009 (ip), vehicle: saline 100 % of control | dose: 300.0 mg/kg/injection, schedule: Q04DX003 (ip), vehicle: saline 102 % of control

CC(=O)c1cccc(NC(=O)c2c(Br)c(Br)c(Br)c(Br)c2C(=O)O)c1
inactive: [1] 97 % of control | [2] 104 % of control | [3] 109 % of control

O=C(/C=C(\C(=O)c1ccccc1)c1ccccc1)c1ccc(-c2ccccc2)cc1
inactive: [14] 97 % of control | [15] 101 % of control | [16] 93 % of control

CC1(OC(=O)c2ccc([N+](=O)[O-])cc2)CC2CC1c1ccccc12 (centres undefined)
inactive: dose: 50.0 mg/kg/injection, schedule: Q01DX001 (ip), vehicle: carboxymethylcellulose (CMC) 90 % of control | [17] 111 % of control | [18] 90 % of control

Nc1nc(N)c(N)c(Nc2ccc(Cl)cc2)n1
inactive: [14] 101 % of control | [15] 101 % of control

C=CCNC(=O)/C=C/C(=O)NCC=C
inactive: dose: 25.0 mg/kg/injection, schedule: Q04DX003 (ip), vehicle: saline with Tween-80 97 % of control | [19] 97 % of control | [5] 89 % of control

COS(=O)(=O)CCCCCC[N+](C)(C)C
inactive: [10] 93 % of control | [11] 102 % of control | [12] 98 % of control

O=Nc1ccc(O)cc1Br
inactive: [4] 100 % of control | [8] 97 % of control | [9] 100 % of control and 92 % of control

CCCCSCCC
inactive: [20] 98 % of control | [5] 117 % of control | [21] 98 % of control | [6] 96 % of control | [22] 94 % of control | [7] 94 % of control

C(=N\Nc1nc2ccccc2s1)/c1ccc(/C=N/Nc2nc3ccccc3s2)cc1
inactive: [1] 96 % of control | [2] 96 % of control | [3] 104 % of control

CCN(CC)C(=S)Oc1c(C(C)(C)C)cc([N+](=O)[O-])c(C)c1[N+](=O)[O-]
inactive: [14] 90 % of control | [15] 100 % of control | [16] 97 % of control

C(/C=C/C=C/Nc1ccc(N=Nc2ccccc2)cc1)=Nc1ccc(N=Nc2ccccc2)cc1
inactive: dose: 100.0 mg/kg/injection, schedule: Q01DX009 (ip), vehicle: saline sonified 94 % of control | dose: 100.0 mg/kg/injection, schedule: Q04DX003 (ip), vehicle: saline sonified 94 % of control | dose: 200.0 mg/kg/injection, schedule: Q01DX009 (ip), vehicle: saline sonified 94 % of control | dose: 200.0 mg/kg/injection, schedule: Q04DX003 (ip), vehicle: saline sonified 93 % of control | dose: 400.0 mg/kg/injection, schedule: Q04DX003 (ip), vehicle: saline sonified 91 % of control

CCCCN=C(N)c1ccc(S(=O)(=O)N=C(N)N)cc1
inactive: [11] 97 % of control | [12] 101 % of control | [13] 97 % of control

CCOC(=O)CC(C(=O)OCC)c1nc2ccccc2[nH]c1=O (centres undefined)
inactive: dose: 50.0 mg/kg/injection, schedule: Q01DX009 (ip), vehicle: Klucel (hydroxypropylcellulose) (HPC) 93 % of control and 113 % of control | [1] 101 % of control and 90 % of control | [2] 93 % of control and 103 % of control

CC(=O)O[C@H]1CC[C@@]2(C)[C@@H](CC[C@@H]3[C@@H]2CC[C@]2(C)[C@@H](C(C)=O)CC[C@@H]32)C1
inactive: [14] 96 % of control | [15] 96 % of control | [16] 96 % of control

NCCCN1CCCN=C1C1=NCCCN1CCCN
inactive: [20] 96 % of control | dose: 100.0 mg/kg/injection, schedule: Q04DX002 (ip), vehicle: saline 100 % of control | [5] 109 % of control | [21] 100 % of control | dose: 200.0 mg/kg/injection, schedule: Q04DX002 (ip), vehicle: saline 100 % of control | [6] 98 % of control | [22] 100 % of control | [7] 95 % of control

CCc1ccc(/C=C/c2ccc(O)c3ccccc23)[n+](C)c1
inactive: dose: 75.0 mg/kg/injection, schedule: Q01DX001 (ip), vehicle: saline 97 % of control | dose: 150.0 mg/kg/injection, schedule: Q01DX001 (ip), vehicle: saline 105 % of control

CC(C)(C)NS(=O)(=O)c1ccc(Cl)c([N+](=O)[O-])c1
inactive: [23] 95 % of control | [24] 93 % of control | dose: 400.0 mg/kg/injection, schedule: Q04DX003 (ip), vehicle: Klucel (hydroxypropylcellulose) (HPC) 90 % of control

O=Cc1cccc(CC(O)(C(F)(F)F)C(F)(F)F)n1
inactive: [25] 101 % of control | [26] 101 % of control | [19] 91 % of control | [5] 91 % of control | [6] 104 % of control

c1ccc2c(c1)OCOc1ccccc1OCO2
inactive: [27] 94 % of control | [17] 92 % of control | [18] 92 % of control

Cc1ccc([N+](=O)[O-])cc1NC(=O)N(C(C)C)C1CCCCC1
inactive: [1] 106 % of control | [2] 95 % of control | [3] 106 % of control

CCC1=C2C(=O)c3ccccc3C2=C(C)S(=O)(=O)O1
inactive: dose: 12.5 mg/kg/injection, schedule: Q01DX009 (ip), vehicle: saline with Tween-80 95 % of control | [25] 108 % of control | [26] 94 % of control and 111 % of control | [5] 96 % of control | [6] 96 % of control

O=C1NC(=O)C2C3CCC(C12)C3C(c1ccccc1)c1ccccc1 (centres undefined)
inactive: [27] 106 % of control | [17] 95 % of control | [18] 103 % of control

CC(C)(C)OC(=O)c1cc([N+](=O)[O-])cc([N+](=O)[O-])c1
inactive: [14] 104 % of control | [15] 104 % of control | [16] 107 % of control

Nc1nc(SCc2ccccc2)c(N)c(=S)[nH]1
inactive: [4] 95 % of control | [8] 90 % of control | [9] 93 % of control

Cc1cc(=O)[nH]c2c1CCC2
inactive: dose: 50.0 mg/kg/injection, schedule: Q01DX009 (ip), vehicle: saline 92 % of control | dose: 100.0 mg/kg/injection, schedule: Q01DX009 (ip), vehicle: saline 95 % of control | dose: 100.0 mg/kg/injection, schedule: Q04DX003 (ip), vehicle: saline 106 % of control | dose: 200.0 mg/kg/injection, schedule: Q04DX003 (ip), vehicle: saline 108 % of control

Nc1ncnc2nc(N=Nc3ccc(S(=O)(=O)N(CCCl)CCCl)cc3)[nH]c12
inactive: dose: 50.0 mg/kg/injection, schedule: Q04DX003 (ip), vehicle: Klucel (hydroxypropylcellulose) (HPC) 93 % of control | [23] 88 % of control and 91 % of control | [24] 96 % of control
